Measurements: publication PMC10520499, “Next step in the development of mesoprogestins: the preclinical profile of EC313” (Frontiers in Endocrinology, 2023)

What was measured:
[1] = test system: immature female ovariectomized Wistar rats; experiment: Uterus growth test in immature ovariectomized rats; format: in vivo, rat; details: daily s.c. doses of up to corresponding to 172 mg/kg body weight
Text: […] The vehicle served as the negative control. After treatment, the animals were sacrificed on day 4, and their vagina and uterine horns were dissected and weighed.

PR-B – NCoR = target: T1, PR-B – NCoR (Homo sapiens, UniProt P06401); experiment: PR-B – NCoR interaction, two-hybrid system; format: cell-based
T1 construct: expressed in transfected cells
Text: The active recruitment of the nuclear corepressor NCoR results in transcriptional inactivity of the PR. So, the potency of PR ligands to induce the interaction of PR with NCoR provides information on the antagonistic potency of the ligand. Therefore, the capacity of EC313 to induce the interaction of PR-B with the corepressor NCoR in comparison with reference ligands was studied. All test compounds except the receptor agonist Promegestone induced PR to interact with NCoR.
Figure 11 (A) PR-B interaction with NCoR using a two-hybrid assay. Dose response curve. […] (B) Liganded PR-Binteraction with c-SRC kinase. The data presented are from five independent experiments. Signals are represented as mean luminescence ± SD normalized to maximal promegestone activity equal to 100%.

[2] = test system: estrogen-primed endometrium of immature rabbits; experiment: McPhail assay, estrogen-primed rabbit endometrium; format: in vivo; details: 10 and 30 mg/animal/day; progesterone 1 mg/animal/day; p< 0.05

T1 sequence (P06401 whole entry): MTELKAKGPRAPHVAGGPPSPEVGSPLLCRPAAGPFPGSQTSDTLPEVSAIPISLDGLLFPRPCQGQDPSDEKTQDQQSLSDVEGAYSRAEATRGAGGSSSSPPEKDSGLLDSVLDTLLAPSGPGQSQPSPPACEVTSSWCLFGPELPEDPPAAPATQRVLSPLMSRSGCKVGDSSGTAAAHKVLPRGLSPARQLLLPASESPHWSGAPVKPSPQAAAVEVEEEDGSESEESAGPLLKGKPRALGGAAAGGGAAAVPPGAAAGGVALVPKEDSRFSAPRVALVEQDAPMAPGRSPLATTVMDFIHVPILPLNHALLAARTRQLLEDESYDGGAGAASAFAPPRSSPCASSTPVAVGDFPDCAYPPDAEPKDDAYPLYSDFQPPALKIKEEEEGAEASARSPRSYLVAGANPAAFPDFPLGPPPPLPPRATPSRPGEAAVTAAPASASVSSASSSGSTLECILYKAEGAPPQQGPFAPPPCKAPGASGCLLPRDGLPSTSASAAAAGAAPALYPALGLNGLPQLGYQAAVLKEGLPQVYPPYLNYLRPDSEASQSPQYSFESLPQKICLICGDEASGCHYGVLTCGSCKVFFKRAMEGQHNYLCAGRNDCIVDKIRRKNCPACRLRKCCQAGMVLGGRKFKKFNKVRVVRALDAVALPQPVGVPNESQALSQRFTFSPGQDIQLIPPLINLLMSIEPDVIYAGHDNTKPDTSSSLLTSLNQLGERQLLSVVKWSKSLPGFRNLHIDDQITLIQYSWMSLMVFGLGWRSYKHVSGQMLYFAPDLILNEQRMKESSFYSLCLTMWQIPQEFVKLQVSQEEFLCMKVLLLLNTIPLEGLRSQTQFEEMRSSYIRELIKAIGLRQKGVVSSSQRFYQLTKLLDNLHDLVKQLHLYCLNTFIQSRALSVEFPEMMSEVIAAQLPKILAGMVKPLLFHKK
T1 sequence (O75376 whole entry partner): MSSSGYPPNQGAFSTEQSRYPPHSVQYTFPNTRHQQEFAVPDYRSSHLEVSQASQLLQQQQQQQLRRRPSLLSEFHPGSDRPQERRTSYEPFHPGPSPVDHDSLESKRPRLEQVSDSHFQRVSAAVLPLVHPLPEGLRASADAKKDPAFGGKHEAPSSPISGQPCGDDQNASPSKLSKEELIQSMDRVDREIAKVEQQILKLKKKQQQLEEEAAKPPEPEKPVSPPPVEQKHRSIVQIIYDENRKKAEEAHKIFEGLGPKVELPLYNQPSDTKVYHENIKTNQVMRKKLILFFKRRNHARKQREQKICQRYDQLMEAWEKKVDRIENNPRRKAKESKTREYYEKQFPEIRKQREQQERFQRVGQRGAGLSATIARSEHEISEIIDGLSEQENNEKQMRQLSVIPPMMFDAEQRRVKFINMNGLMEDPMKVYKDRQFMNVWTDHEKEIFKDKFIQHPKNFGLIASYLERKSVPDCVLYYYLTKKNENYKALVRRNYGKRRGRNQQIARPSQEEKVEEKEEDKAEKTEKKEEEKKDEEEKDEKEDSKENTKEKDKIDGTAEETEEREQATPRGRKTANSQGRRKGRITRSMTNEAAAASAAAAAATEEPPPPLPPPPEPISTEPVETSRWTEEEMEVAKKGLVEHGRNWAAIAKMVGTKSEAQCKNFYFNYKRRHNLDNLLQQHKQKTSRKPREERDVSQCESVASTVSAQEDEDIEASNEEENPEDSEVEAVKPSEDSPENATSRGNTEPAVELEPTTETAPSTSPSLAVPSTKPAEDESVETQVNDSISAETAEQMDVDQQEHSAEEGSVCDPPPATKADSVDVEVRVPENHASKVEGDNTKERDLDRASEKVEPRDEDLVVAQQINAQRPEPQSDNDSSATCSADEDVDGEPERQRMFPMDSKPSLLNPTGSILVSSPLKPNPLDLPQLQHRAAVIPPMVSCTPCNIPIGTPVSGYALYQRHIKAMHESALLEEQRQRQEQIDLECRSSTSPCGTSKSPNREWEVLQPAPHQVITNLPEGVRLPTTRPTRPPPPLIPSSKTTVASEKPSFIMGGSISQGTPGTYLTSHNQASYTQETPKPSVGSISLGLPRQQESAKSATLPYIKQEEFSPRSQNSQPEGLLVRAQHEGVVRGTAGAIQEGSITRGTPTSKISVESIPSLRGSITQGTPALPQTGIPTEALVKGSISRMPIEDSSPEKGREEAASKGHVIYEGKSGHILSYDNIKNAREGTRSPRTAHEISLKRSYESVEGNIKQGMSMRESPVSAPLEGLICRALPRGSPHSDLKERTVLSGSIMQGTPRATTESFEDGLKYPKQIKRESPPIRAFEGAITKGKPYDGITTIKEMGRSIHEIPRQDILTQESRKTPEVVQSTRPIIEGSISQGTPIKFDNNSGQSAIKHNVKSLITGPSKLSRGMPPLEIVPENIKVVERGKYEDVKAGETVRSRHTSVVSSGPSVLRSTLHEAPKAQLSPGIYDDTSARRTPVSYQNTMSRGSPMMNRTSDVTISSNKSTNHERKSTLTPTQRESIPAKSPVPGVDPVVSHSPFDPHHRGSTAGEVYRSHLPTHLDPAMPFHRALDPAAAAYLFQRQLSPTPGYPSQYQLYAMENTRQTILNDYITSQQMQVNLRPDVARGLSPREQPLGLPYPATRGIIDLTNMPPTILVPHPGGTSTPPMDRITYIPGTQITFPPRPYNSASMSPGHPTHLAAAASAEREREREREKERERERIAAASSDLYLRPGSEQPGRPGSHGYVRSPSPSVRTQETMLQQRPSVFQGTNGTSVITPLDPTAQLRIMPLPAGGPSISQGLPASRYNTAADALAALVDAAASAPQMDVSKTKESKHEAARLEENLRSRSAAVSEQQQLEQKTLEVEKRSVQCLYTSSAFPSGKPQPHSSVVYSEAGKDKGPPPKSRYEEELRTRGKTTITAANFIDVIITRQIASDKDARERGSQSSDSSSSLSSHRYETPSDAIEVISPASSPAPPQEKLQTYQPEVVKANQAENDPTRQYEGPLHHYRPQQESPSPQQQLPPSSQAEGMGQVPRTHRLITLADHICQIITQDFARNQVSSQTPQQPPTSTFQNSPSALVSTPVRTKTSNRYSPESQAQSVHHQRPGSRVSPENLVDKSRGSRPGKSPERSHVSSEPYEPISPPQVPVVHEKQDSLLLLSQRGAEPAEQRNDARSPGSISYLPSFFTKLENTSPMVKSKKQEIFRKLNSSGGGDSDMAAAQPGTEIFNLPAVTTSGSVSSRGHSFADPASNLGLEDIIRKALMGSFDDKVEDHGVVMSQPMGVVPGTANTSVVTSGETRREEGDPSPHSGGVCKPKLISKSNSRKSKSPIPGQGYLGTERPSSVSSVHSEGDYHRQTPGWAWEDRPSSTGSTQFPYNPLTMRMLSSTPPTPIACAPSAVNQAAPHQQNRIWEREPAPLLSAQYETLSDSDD

## C[C@]12C[C@H](c3ccc(-c4ccoc4)cc3)C3=C4CCC(=O)C=C4CC[C@H]3[C@@H]1CC[C@]21OCCC1=C(F)F [EC313]
[1]
  estrogenic / anti-estrogenic activity (uterine horn and vagina weights): neither estrogenic nor anti-estrogenic activity
PR-B – NCoR
  efficacy relative to Ulipristal acetate, NCoR interaction: 83%
  fold lower potency than Ulipristal acetate, NCoR interaction: 200 fold
  induction of PR interaction with NCoR: limited ability to induce progesterone receptor interaction with NCoR
[2]
  antagonistic action with co-administered progesterone: significant
